# Results reported in patent US9271905B2, “Process for preparing polyurea microcapsules” (Firmenich S.A., priority 2010, dated 2016).
# Assay: LogP of the perfume ingredients
# Type: physicochemical
# Conditions: perfume ingredients of Table 1a
row,Structure (SMILES),logP
1,"CC1C(C)(C)C2=C(C(=O)CCC2)C1(C)C (stereo not shown) [Cashmeran®, 1,2,3,5,6,7-Hexahydro-1,2,3,3-pentamethyl-4h-inden-4-one]",4.31
2,C=CC(C)CCCC(C)(C)O (stereo not shown) [Dihydromyrcenol],3.47
3,C=CC(C)CCCC(C)(C)OC(C)=O (stereo not shown) [Dihydromyrcenyl acetate],4.47

# Same assay, conditions: perfume ingredients of Table 1a; read-out: LogP
row,Structure (SMILES),logP
1,"CC(=O)C(C)=CC1C(C)=CCCC1(C)C (stereo not shown) [Isoraldeine® 70, 3-Methyl-4-(2,6,6-trimethyl-2cyclohexen-1-yl)-3-buten-2-one]",4.84
2,C=CC(C)(CCC=C(C)C)OC(C)=O (stereo not shown) [Linalyl acetate],4.39
3,CCCCCCCCCC(C)C=O (stereo not shown) [2-Methylundecanal],4.67
4,CC12CCC(CC1)C(C)(C)O2 [Eucalyptol],3.13
5,"CC(C)=CCCC1=CCC(C)(C=O)CC1 (stereo not shown) [Precyclemone B, 1-Methyl-4-(4-methyl-3-pentenyl)cyclohex-3-ene-1-carboxaldehyde]",5.18
6,CC(C)[C@@H]1CC[C@@H](C)CC1=O [Menthone],2.87
7,CC12CCC(CC1=O)C2(C)C (stereo not shown) [Camphor],3.04
